IC50 data for 26 compounds are collected here from patent US20080234262A1 (Wyeth, priority 2007, published 2008).

SMILES strings stand for the structures.

One experiment addresses PI3K (Homo sapiens, UniProt P42336). The experiment in a line: Fluorescence polarization assay for PI3K.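 Further: PI3K kinase reaction on PIP2 with ATP, 30-60 min, product sensed by GST-GRP with red probe in fluorescence polarization (mP), controls without enzyme and at zero time.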 Conditions: PI3Kα; read-out: PI3Kα IC50. The format is biochemical.
The test system of another experiment is breast line MDA468. The experiment in a line: In vitro cell culture growth assay (MTS), MDA468. The format is cell-based, human. To be noted: MDA468 cells, three days after drug treatment. Put shortly:
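MDA468 or LNCap cells received inhibitors one day after plating and were grown for three days. Viable cell density read by MTS conversion, absorbance 490 nm, expressed as percent of control growth versus vehicle-treated cells on the same plate.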

For another experiment, the system named is prostate line LNCap. Briefly: In vitro cell culture growth assay (MTS), LNCap. The format is cell-based, human. Conditions: LNCap cells, three days after drug treatment.

Sequence of PI3K (P42336 whole entry): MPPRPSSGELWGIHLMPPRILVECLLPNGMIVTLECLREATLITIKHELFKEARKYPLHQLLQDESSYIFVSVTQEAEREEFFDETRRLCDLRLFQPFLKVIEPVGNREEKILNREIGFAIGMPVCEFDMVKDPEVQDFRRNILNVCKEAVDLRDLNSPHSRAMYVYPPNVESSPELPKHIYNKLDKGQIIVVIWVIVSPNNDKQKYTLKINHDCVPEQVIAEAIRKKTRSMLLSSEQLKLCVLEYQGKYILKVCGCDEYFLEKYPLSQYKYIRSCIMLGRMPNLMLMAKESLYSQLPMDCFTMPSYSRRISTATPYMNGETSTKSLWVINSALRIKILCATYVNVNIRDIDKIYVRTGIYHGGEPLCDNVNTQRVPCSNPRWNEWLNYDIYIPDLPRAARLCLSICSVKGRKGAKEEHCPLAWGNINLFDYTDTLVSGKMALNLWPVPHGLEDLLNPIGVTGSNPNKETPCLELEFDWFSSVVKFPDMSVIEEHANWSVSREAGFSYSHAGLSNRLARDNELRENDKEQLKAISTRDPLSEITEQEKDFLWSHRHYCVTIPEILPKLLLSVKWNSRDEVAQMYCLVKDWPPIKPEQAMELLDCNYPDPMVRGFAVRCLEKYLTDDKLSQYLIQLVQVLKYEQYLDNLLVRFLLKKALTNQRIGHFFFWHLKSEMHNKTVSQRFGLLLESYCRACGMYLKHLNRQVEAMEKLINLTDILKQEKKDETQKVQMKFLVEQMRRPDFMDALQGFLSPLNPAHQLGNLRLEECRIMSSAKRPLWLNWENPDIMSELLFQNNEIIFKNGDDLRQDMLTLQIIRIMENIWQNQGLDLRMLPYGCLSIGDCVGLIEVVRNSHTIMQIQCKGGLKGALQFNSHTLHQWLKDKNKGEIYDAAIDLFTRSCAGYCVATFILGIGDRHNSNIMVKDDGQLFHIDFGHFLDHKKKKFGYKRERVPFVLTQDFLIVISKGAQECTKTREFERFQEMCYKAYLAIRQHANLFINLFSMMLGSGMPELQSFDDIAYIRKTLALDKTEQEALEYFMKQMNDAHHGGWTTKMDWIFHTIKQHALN
Sequence of PI3K (P27986 whole entry partner): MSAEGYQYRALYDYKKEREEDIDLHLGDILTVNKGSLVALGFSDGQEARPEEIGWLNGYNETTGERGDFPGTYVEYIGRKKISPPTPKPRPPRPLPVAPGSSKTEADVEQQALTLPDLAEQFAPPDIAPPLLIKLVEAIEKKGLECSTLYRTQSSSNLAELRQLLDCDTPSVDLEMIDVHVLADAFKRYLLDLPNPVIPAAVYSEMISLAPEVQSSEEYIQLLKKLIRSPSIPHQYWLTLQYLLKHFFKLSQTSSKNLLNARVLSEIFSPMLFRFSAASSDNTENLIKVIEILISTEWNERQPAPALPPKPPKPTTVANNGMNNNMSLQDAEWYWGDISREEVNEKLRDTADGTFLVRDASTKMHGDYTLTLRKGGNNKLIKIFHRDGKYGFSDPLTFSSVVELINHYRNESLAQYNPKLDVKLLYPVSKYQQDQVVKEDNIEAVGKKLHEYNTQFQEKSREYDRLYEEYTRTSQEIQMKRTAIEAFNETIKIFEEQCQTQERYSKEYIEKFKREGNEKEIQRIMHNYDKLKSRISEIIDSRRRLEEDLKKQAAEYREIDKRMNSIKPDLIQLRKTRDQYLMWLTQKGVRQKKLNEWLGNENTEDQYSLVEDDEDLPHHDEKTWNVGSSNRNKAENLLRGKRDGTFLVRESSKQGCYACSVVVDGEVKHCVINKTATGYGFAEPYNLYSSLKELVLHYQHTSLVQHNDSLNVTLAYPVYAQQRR

In general, IC50 refers to the midpoint of a concentration-inhibition curve. On to `C=CCN1CCC(n2ncc3c(N4CCOCC4)nc(-c4ccc(NC(=O)NC)cc4)nc32)CC1` [Compound 799, 1-{4-[1-(1-allylpiperidin-4-yl)-4-morpholin-4-yl-1H-pyrazolo[3,4-d]pyrimidin-6-yl]phenyl}-3-methylurea], for which the IC50 on PI3K was determined as 72 nM; in the experiment on breast line MDA468 (Homo sapiens, 72 h), 510 nM; with prostate line LNCap (Homo sapiens, LNCaP, 72 h), 140 nM.
In the same order, the values of `CNCCNC(=O)Nc1ccc(-c2nc(N3CCOCC3)c3cnn(C4CCN(Cc5cccnc5)CC4)c3n2)cc1` [Example 342, 1-[2-(methylamino)ethyl]-3-(4-{4-morpholin-4-yl-1-[1-(pyridin-3-ylmethyl)piperidin-4-yl]-1H-pyrazolo[3,4-d]pyrimidin-6-yl}phenyl)urea] are 29 nM, 1100 nM and 1200 nM.
In the same order, the values of `CCCOC(=O)N1CCC(n2ncc3c(N4CCOCC4)nc(-c4ccc(NC(=O)NCC)cc4)nc32)CC1` [Compound 852, propyl 4-(6-{4-[(ethylcarbamoyl)amino]phenyl}-4-morpholin-4-yl-1H-pyrazolo[3,4-d]pyrimidin-1-yl)piperidine-1-carboxylate] are 577 nM, 510 nM and 80 nM.
Turning to `O=C(NCCF)Nc1ccc(-c2nc(N3CCOCC3)c3cnn(C4CCN(C(=O)c5cccnc5)CC4)c3n2)cc1` [Compound 548, 1-(2-fluoroethyl)-3-(4-{4-morpholin-4-yl-1-[1-(pyridin-3-ylcarbonyl)piperidin-4-yl]-1H-pyrazolo[3,4-d]pyrimidin-6-yl}phenyl)urea], the IC50 was 541 nM on PI3K; 520 nM in the experiment on breast line MDA468 (Homo sapiens, 72 h); 630 nM in the experiment with prostate line LNCap (Homo sapiens, LNCaP, 72 h).
`COC(=O)N1CCC(n2ncc3c(N4CCOCC4)nc(-c4ccc(NC(=O)Nc5ccc(CCNCCN(C)C)cc5)cc4)nc32)CC1` [Compound 919, methyl 4-{6-[4-({[4-(2-{[2-(dimethylamino)ethyl]amino}ethyl)phenyl]carbamoyl}amino)phenyl]-4-morpholin-4-yl-1H-pyrazolo[3,4-d]pyrimidin-1-yl}piperidine-1-carboxylate]: the IC50 at PI3K was determined as 8 nM; in the experiment with breast line MDA468 (Homo sapiens, 72 h), 420 nM; in the experiment with prostate line LNCap (Homo sapiens, LNCaP, 72 h) it was 31 nM.
In the case of `CNC(=O)Nc1ccc(-c2nc(N3CCOCC3)c3cnn(C4CCN(C(=O)c5ccc(F)nc5)CC4)c3n2)cc1` [Compound 665, 1-[4-(1-{1-[(6-fluoropyridin-3-yl)carbonyl]piperidin-4-yl}-4-morpholin-4-yl-1H-pyrazolo[3,4-d]pyrimidin-6-yl)phenyl]-3-methylurea], the IC50 at PI3K was 100 nM; with breast line MDA468, 270 nM; in the experiment with prostate line LNCap, 250 nM.
For the compound `O=C(NCCO)Nc1ccc(-c2nc(N3CCOCC3)c3cnn(C4CCNCC4)c3n2)cc1` [Compound 775, 1-(2-hydroxyethyl)-3-[4-(4-morpholin-4-yl-1-piperidin-4-yl-1H-pyrazolo[3,4-d]pyrimidin-6-yl)phenyl]urea], the IC50 at PI3K was 170 nM; with breast line MDA468 (Homo sapiens, 72 h), 12000 nM; in the experiment on prostate line LNCap (Homo sapiens, LNCaP, 72 h) it was 26000 nM.
As to `OCCN1CCC(n2ncc3c(N4CCOCC4)nc(-c4ccc5[nH]ccc5c4)nc32)CC1` [Compound 496, 2-{4-[6-(1H-indol-5-yl)-4-morpholin-4-yl-1H-pyrazolo[3,4-d]pyrimidin-1-yl]piperidin-1-yl}ethanol], the IC50 at PI3K stood at 3990 nM; in the experiment on breast line MDA468 (Homo sapiens, 72 h), 3000 nM; in the experiment with prostate line LNCap (Homo sapiens, LNCaP, 72 h), 1800 nM.
With `COc1cc(-c2nc(N3CCOCC3)c3cnn(C4CCN(Cc5ccccc5)CC4)c3n2)ccc1NC(C)=O` [Compound 182], the IC50 on PI3K stood at 3930 nM; in the experiment with breast line MDA468 (Homo sapiens, 72 h), 4100 nM; with prostate line LNCap (Homo sapiens, LNCaP, 72 h), 5000 nM.
Consider `CNC(=O)Nc1ccc(-c2nc(N3CCOCC3)c3cnn(C4CCN(Cc5cncc(Br)c5)CC4)c3n2)cc1` [Compound 638, 1-[4-(1-{1-[(5-bromopyridin-3-yl)methyl]piperidin-4-yl}-4-morpholin-4-yl-1H-pyrazolo[3,4-d]pyrimidin-6-yl)phenyl]-3-methylurea], for which the values for the IC50 on PI3K, in the experiment with breast line MDA468 and in the experiment with prostate line LNCap were 72 nM, 560 nM and 95 nM, respectively.
As to `O=C(NCCF)Nc1ccc(-c2nc(N3CCOCC3)c3cnn(C4CCN(Cc5cccnc5)CC4)c3n2)cc1` [Compound 560, 1-(2-fluoroethyl)-3-(4-{4-morpholin-4-yl-1-[1-(pyridin-3-ylmethyl)piperidin-4-yl]-1H-pyrazolo[3,4-d]pyrimidin-6-yl}phenyl)urea], the IC50 was 338 nM on PI3K; 27 nM in the experiment on breast line MDA468 (Homo sapiens, 72 h); less than 27 nM with prostate line LNCap (Homo sapiens, LNCaP, 72 h).
As to `O=C(NCCF)Nc1ccc(-c2nc(N3CCOCC3)c3cnn(C4CCN(C(=O)c5cccnc5)CC4)c3n2)cc1` [Example 303, 1-(2-fluoroethyl)-3-(4-{4-morpholin-4-yl-1-[1-(pyridin-3-ylcarbonyl)piperidin-4-yl]-1H-pyrazolo[3,4-d]pyrimidin-6-yl}phenyl)urea], the IC50 on PI3K is 541 nM; with breast line MDA468 (Homo sapiens, 72 h) it was 500 nM; in the experiment with prostate line LNCap (Homo sapiens, LNCaP, 72 h), 630 nM.
For the compound `COC(=O)N1CCC(n2ncc3c(N4CCOCC4)nc(-c4ccc(NC(=O)Nc5ccc(F)cc5)cc4)nc32)CC1` [Compound 859, methyl 4-[6-(4-{[(4-fluorophenyl)carbamoyl]amino}phenyl)-4-morpholin-4-yl-1H-pyrazolo[3,4-d]pyrimidin-1-yl]piperidine-1-carboxylate], the 50% inhibitory concentration (IC50) was determined as 28 nM at PI3K; 78 nM in the experiment with breast line MDA468 (Homo sapiens, 72 h); 27 nM in the experiment on prostate line LNCap (Homo sapiens, LNCaP, 72 h).
As for `O=C(O)CCC(=O)Nc1ccc(-c2nc(N3CCOCC3)c3cnn(-c4ccccc4)c3n2)cc1` [Compound 109], the IC50 on PI3K came to 248 nM; with breast line MDA468 (Homo sapiens, 72 h), 30000 nM; in the experiment on prostate line LNCap (Homo sapiens, LNCaP, 72 h), 45000 nM.
For `CNC(=O)Nc1ccc(-c2nc(N3CCOCC3)c3cnn(C4CCNCC4)c3n2)cc1` [Example 338, 1-methyl-3-[4-(4-morpholin-4-yl-1-piperidin-4-yl-1H-pyrazolo[3,4-d]pyrimidin-6-yl)phenyl]urea], the IC50 at PI3K stood at 23 nM; in the experiment with breast line MDA468 (Homo sapiens, 72 h) it was 1300 nM; in the experiment on prostate line LNCap (Homo sapiens, LNCaP, 72 h), 500 nM.
In the same order, the values of `N#CNC(=O)Nc1ccc(-c2nc(N3CCOCC3)c3cnn(C4CCN(Cc5cccnc5)CC4)c3n2)cc1` [Example 409, N′-cyano-N-(4-{4-morpholin-4-yl-1-[1-(pyridin-3-ylmethyl)piperidin-4-yl]-1H-pyrazolo[3,4-d]pyrimidin-6-yl}phenyl)carbamimidic acid] are 363 nM, 2500 nM and 800 nM.
Consider `CCNC(=O)Nc1ccc(-c2nc(N3CCOCC3)c3cnn(C4CCNCC4)c3n2)cc1` [Compound 773], for which the IC50 was 306 nM at PI3K; 390 nM with breast line MDA468 (Homo sapiens, 72 h); 620 nM with prostate line LNCap (Homo sapiens, LNCaP, 72 h).
In the same order, the values of `COc1ccc(NC2CCC(n3ncc4c(N5CCOCC5)nc(-c5ccc6[nH]ccc6c5)nc43)CC2)cc1` (stereo not drawn) [Compound 153] are 460 nM, 6500 nM and 2000 nM.
With `CS(=O)(=O)Nc1cccc(-c2nc(N3CCOCC3)c3cnn(-c4ccccc4)c3n2)c1` [Compound 116], the IC50 on PI3K came out at 111 nM; with breast line MDA468 (Homo sapiens, 72 h), 60000 nM; in the experiment on prostate line LNCap (Homo sapiens, LNCaP, 72 h) it was 20000 nM.
Take `CNC(=O)Nc1ccc(-c2nc(N3CCOCC3)c3cnn(C4CCN(C(=O)c5cccc(C(C)=O)c5)CC4)c3n2)cc1` [Example 423, 1-(4-{1-[1-(3-acetylbenzoyl)piperidin-4-yl]-4-morpholin-4-yl-1H-pyrazolo[3,4-d]pyrimidin-6-yl}phenyl)-3-methylurea]: the IC50 was determined as 83 nM on PI3K; 200 nM in the experiment on breast line MDA468 (Homo sapiens, 72 h); 110 nM with prostate line LNCap (Homo sapiens, LNCaP, 72 h).
With `COC(=O)N1CCC(n2ncc3c(N4CCOC(C)C4)nc(-c4ccc(NC(=O)Nc5ccccn5)cc4)nc32)CC1` (stereo not drawn) [Compound 847, methyl 4-[4-(2-methylmorpholin-4-yl)-6-{4-[(pyridin-2-ylcarbamoyl)amino]phenyl}-1H-pyrazolo[3,4-d]pyrimidin-1-yl]piperidine-1-carboxylate], the IC50 at PI3K worked out at 8320 nM; in the experiment on breast line MDA468 (Homo sapiens, 72 h) it was 15000 nM; in the experiment on prostate line LNCap (Homo sapiens, LNCaP, 72 h), 13000 nM.
For the compound `O=C(NCCO)Nc1ccc(-c2nc(N3CCOCC3)c3cnn(C4CCN(CC(F)(F)F)CC4)c3n2)cc1` [Compound 784, 1-(2-hydroxyethyl)-3-(4-{4-morpholin-4-yl-1-[1-(2,2,2-trifluoroethyl)piperidin-4-yl]-1H-pyrazolo[3,4-d]pyrimidin-6-yl}phenyl)urea], the IC50 on PI3K is 380 nM; with breast line MDA468 (Homo sapiens, 72 h) it was 1050 nM; in the experiment on prostate line LNCap (Homo sapiens, LNCaP, 72 h), 100 nM.
Regarding `COC(=O)N1CCC(n2ncc3c(N4CCOCC4)nc(-c4ccc(NC(=O)Nc5ccccn5)cc4)nc32)CC1` [Compound 736, methyl 4-(4-morpholin-4-yl-6-{4-[(pyridin-2-ylcarbamoyl)amino]phenyl}-1H-pyrazolo[3,4-d]pyrimidin-1-yl)piperidine-1-carboxylate], the IC50 turned out to be 1150 nM on PI3K; 17000 nM with breast line MDA468 (Homo sapiens, 72 h); 565 nM in the experiment with prostate line LNCap (Homo sapiens, LNCaP, 72 h).
Turning to `OCCN1CCC(n2ncc3c(N4CCOCC4)nc(-c4ccc5[nH]ccc5c4)nc32)CC1` [Compound 246, 2-{4-[6-(1H-indol-5-yl)-4-morpholin-4-yl-1H-pyrazolo[3,4-d]pyrimidin-1-yl]piperidin-1-yl}ethanol], the IC50 on PI3K was determined as 3990 nM; with breast line MDA468 (Homo sapiens, 72 h) it was 3000 nM; in the experiment with prostate line LNCap (Homo sapiens, LNCaP, 72 h), 1800 nM.
For the compound `O=C(NCC1CC1)Nc1ccc(-c2nc(N3CCOCC3)c3cnn(C4CCN(Cc5ccccc5)CC4)c3n2)cc1` [Compound 508, 1-{4-[1-(1-benzylpiperidin-4-yl)-4-morpholin-4-yl-1H-pyrazolo[3,4-d]pyrimidin-6-yl]phenyl}-3-(cyclopropylmethyl)urea], the IC50 on PI3K was 384 nM; in the experiment on breast line MDA468 (Homo sapiens, 72 h) it was 3000 nM; with prostate line LNCap (Homo sapiens, LNCaP, 72 h), 700 nM.
Regarding `CN(C)CC(=O)N1CCC(n2ncc3c(N4CCOCC4)nc(-c4ccc5[nH]ccc5c4)nc32)CC1` [Compound 94], the IC50 on PI3K amounted to 1460 nM; in the experiment with breast line MDA468 (Homo sapiens, 72 h), 4200 nM; in the experiment with prostate line LNCap (Homo sapiens, LNCaP, 72 h) it was 1900 nM.
